Results reported in US10682367B2, “Antitumor arylnaphthalene ligand glycosides” (OHIO STATE INNOVATION FOUNDATION, priority 2016, dated 2020).
≈ marks a conversion by molar mass, not a printed value. Read-outs that look alike come from different tables or passages of the source.

How the values were obtained:
[1] = Solubility, plate reader-based absorbance assay; type: physicochemical
Source text: A series of compounds were synthesized to improve their water solubility. In particular, phyllanthusmin derivatives including an arabinose derivative with a free C2 hydroxy group, have been explored to produce phosphate, succinate, and amino acid conjugates. In addition PHY-25 and PHY-30 have also been synthesized to contain similar alcohol functionality that can ultimately be utilized to improve water solubility. PHY-28 and PHY-29 containing a glucosamine moiety were also synthesized for improved water solubility. The water solubility of these and other PHY derivatives was assessed (Table 2) to establish a baseline of solubility in a series of 4 solutions. This was accomplished using a plate reader-based absorbance assay.
(§1) The solubility, maximum tolerated dose, and pharmacokinetics of the phyllanthusmins, facilitating the in vivo studies with PHY-34, were also determined. The solubility of the compounds were assessed in DMSO, PEG300, HPβCD, and PBS. The stability of PHY-34 was assessed in a formulation comprising PEG300 and saline at a 1:1 volume ratio. The solution was prepared at a concentration of 7 mg/ml. A plate reader-based absorbance assay or LC-MS/MS was used. Table 4 summarizes the solubility measurements. FIG. 5 and Table 5 summarize the stability measurements. FIGS. 6A and 6B show the concentration-time profile of PHY-34 in mouse plasma via different administration routes

[2] = tested on: OVCAR3 ovarian cancer cell line; assay: IC50 in ovarian cancer cell line OVCAR3; type: cell-based
Method: (§2) The compounds shown in FIG. 2 were tested against two different ovarian cancer cell lines (xenograft mouse model OVCAR3 and OVCAR8 ovarian cancer cell lines). […] A summary of the test data is shown in FIGS. 3A, 3B, and 4 and Table 3. A comparison of the IC50 values of the compounds in FIG. 2 in two of the ovarian cancer cell lines (OVCAR3 and OVCAR8) reveal subtle differences in activity.

[3] = tested on: OVCAR8 ovarian cancer cell line; assay: IC50 in ovarian cancer cell line OVCAR8; type: cell-based
Method: as §2

HT-29 cells = assay: Cytotoxicity / antiproliferative activity against HT-29 cells; type: cell-based; details: for IC50: HT-29 cells, antiproliferative activity
Source text: The cytotoxicity of the compounds in FIG. 1 was screened against HT-29 cells by a previously reported procedure (Ren Y et al. J. Nat. Prod 2011, 74, 1117-1125). A summary of the results is described in Table 1.

[4] = Structure-activity remarks on potency of PHY analogues (test not named); details: relative to PHY-34 type acetal
[5] = Stability of PHY-34 in PEG300/saline formulation; type: physicochemical; details: for Stability of PHY-34 / Stability of PHY-34, second value column: PEG300:saline 1:1, 7 mg/ml
Method: as §1

mice = assay: Toxicity and maximum tolerated dose in mice by IV, IP or PO route; type: in vivo; details: for MTD (maximum tolerated dose) / Toxicity (survival): mice
Method: To determine toxicity, PHY-34 was administered to mice by the bolus intravenous (IV), bolus intraperitoneal (IP), or oral (PO) route to the assigned animals.

[6] = mouse, in vivo
Method: as §1

Hollow fiber assay = assay: Hollow fiber assay; parameters: species or system mice; details: mouse
Method: Hollow fiber assay, IVIS imaging, tubulin inhibition, autophagy, and tumor burden were determined in mice exposed to various arylnaphthalene ligans.

[7] = tested on: numerous other cell lines; assay: In vitro activity in numerous other cell lines; type: cell-based

phyllanthusmins B [PHY-3]
Solubility in 10% Cremaphor EL/PBS [1]: 8.9 mg/mL
Solubility in DMSO [1]: 16 mg/mL
Solubility in PBS [1]: 0.18 mg/mL
Solubility in PEG300 [1]: 30 mg/mL

phyllanthusmins C [PHY-4]
Solubility in 10% Cremaphor EL/PBS [1]: 9.4 mg/mL
Solubility in DMSO [1]: 63 mg/mL
Solubility in PBS [1]: 0.17 mg/mL
Solubility in PEG300 [1]: 32 mg/mL

CC(=O)O[C@H]1C(=O)[C@@]2(C)[C@H]([C@H](OC(=O)c3ccccc3)[C@]3(O)C[C@H](OC(=O)[C@H](O)[C@@H](NC(=O)c4ccccc4)c4ccccc4)C(C)=C1C3(C)C)[C@]1(OC(C)=O)CO[C@@H]1C[C@@H]2O [TAXOL, Taxol, reference compound]
IC50 ([2]; Homo sapiens, OVCAR-3): 5.91 nM
IC50 ([3]; Homo sapiens, OVCAR-8): 7.76 nM

phyllanthusmins D [PHY-1]
IC50 ([2]; OVCAR3): 10900 nM
IC50 ([3]; OVCAR8): 49.9 nM
Solubility in 10% Cremaphor EL/PBS ([1]; Table 2): 8.4 mg/mL
Solubility in DMSO ([1]; Table 2): 97 mg/mL
Solubility in PBS ([1]; Table 2): 0.12 mg/mL
Solubility in PEG300 ([1]; Table 2): 33 mg/mL

COc1cc2c(OC3OCC4OC(C)(C)OC4C3O)c3c(c(-c4ccc5c(c4)OCO5)c2cc1OC)C(=O)OC3 (centres unmarked) [PHY-30]
IC50 (HT-29 cells): 10.8 nM
IC50 ([2]; OVCAR3): 11.5 nM
IC50 ([3]; OVCAR8): 11.7 nM

C=CCOc1c2c(c(-c3ccc4c(c3)OCO4)c3cc(OC)c(OC)cc13)C(=O)OC2 [PHY-18]
IC50 (HT-29 cells): 570 nM

COc1cc2c(OC3OC4COC(C)OC4C(O)C3O)c3c(c(-c4ccc5c(c4)OCO5)c2cc1OC)C(=O)OC3 [PHY-32, 7-O-(4,6-O-ethylidene-β-D-galactopyranosyl)-diphyllin]
effect of acetal variation on potency (in words) [4]: loss of potency

COc1cc2c(OC3OC(CO)C4OC5(CCCC5)OC4C3O)c3c(c(-c4ccc5c(c4)OCO5)c2cc1OC)C(=O)OC3 (centres unmarked) [PHY-43]
IC50 ([2]; OVCAR3): 119 nM
IC50 ([3]; OVCAR8): 2.44 nM
effect of acetal variation on potency (in words) [4]: well tolerated

COc1cc2c(O[C@@H]3O[C@H](COC(C)=O)[C@@H](OC(C)=O)[C@H](OC(C)=O)[C@H]3NC(C)=O)c3c(c(-c4ccc5c(c4)OCO5)c2cc1OC)C(=O)OC3 [PHY-28]
IC50 (HT-29 cells): 1550 nM

COc1cc2c(OC3OC(CO)C4OC(C)(C)OC4C3OC)c3c(c(-c4ccc5c(c4)OCO5)c2cc1OC)C(=O)OC3 (centres unmarked) [PHY-37]
IC50 ([2]; OVCAR3): 3.59 nM
IC50 ([3]; OVCAR8): 4.87 nM
Solubility in 30% HPβCD ([1]; Table 4): 0.6 mg/mL (≈ 1.01 mM)
Solubility in DMSO ([1]; Table 4): 104.0 mg/mL (≈ 174 mM)
Solubility in PBS ([1]; Table 4): — (below the limit of quantitation (0.01 mg/ml))
Solubility in PEG300 ([1]; Table 4): 28.7 mg/mL (≈ 48.1 mM)

COc1cc2c(O[C@@H]3OC[C@H](OC(C)=O)[C@H](OC(C)=O)[C@H]3OC(C)=O)c3c(c(-c4ccc5c(c4)OCO5)c2cc1OC)C(=O)OC3 [PHY-7, 7-O-((2,3,4-tri-O-acetyl)-α-L-arabinopyranosyl) diphyllin]
Solubility in 10% Cremaphor EL/PBS [1]: 7.4 mg/mL (≈ 11.6 mM)
Solubility in DMSO [1]: 112 mg/mL (≈ 175 mM)
Solubility in PBS [1]: 0.14 mg/mL (≈ 0.219 mM)
Solubility in PEG300 [1]: 5.7 mg/mL (≈ 8.93 mM)

COCC1OC(Oc2c3c(c(-c4ccc5c(c4)OCO5)c4cc(OC)c(OC)cc24)C(=O)OC3)C(OC)C2OC(C)(C)OC12 (centres unmarked) [PHY-35]
IC50 ([2]; OVCAR3): 4.85 nM
IC50 ([3]; OVCAR8): 7.04 nM
Solubility in DMSO [1]: 86.8 mg/mL (≈ 142 mM)
Solubility in PEG300 [1]: 25.4 mg/mL (≈ 41.6 mM)

COc1cc([C@@H]2c3cc4c(cc3[C@@H](O[C@@H]3O[C@@H]5CO[C@@H](C)O[C@H]5[C@H](O)[C@H]3O)[C@H]3COC(=O)[C@H]23)OCO4)cc(OC)c1O [ETOPO, etoposide, reference compound]
IC50 ([2]; OVCAR3): 2380 nM
IC50 ([3]; OVCAR8): 8130 nM

COc1cc2c(OCCOCc3ccccc3)c3c(c(-c4ccc5c(c4)OCO5)c2cc1OC)C(=O)OC3 [PHY-17]
IC50 (HT-29 cells): 1420 nM

COc1cc2c(OC)c3c(c(-c4ccc5c(c4)OCO5)c2cc1OC)C(=O)OC3 [PHY-26]
IC50 ([2]; OVCAR3): 12000 nM
IC50 ([3]; OVCAR8): 151 nM

phyllanthusmins C [PHY-11]
Solubility in 10% Cremaphor EL/PBS [1]: 10 mg/mL
Solubility in DMSO [1]: 83 mg/mL
Solubility in PBS [1]: 0.18 mg/mL
Solubility in PEG300 [1]: 15 mg/mL

COc1cc2c(OC3OCC4OC(C)(C)OC4C3OC)c3c(c(-c4ccc5c(c4)OCO5)c2cc1OC)C(=O)OC3 (centres unmarked) [PHY-31]
IC50 (HT-29 cells): 5.29 nM

phyllanthusmins C [PHY-15]
Solubility in 10% Cremaphor EL/PBS [1]: 10 mg/mL
Solubility in DMSO [1]: 75 mg/mL
Solubility in PBS [1]: 0.20 mg/mL
Solubility in PEG300 [1]: 14 mg/mL

COc1cc2c(OC3OC4COC(C)OC4C(OC)C3OC)c3c(c(-c4ccc5c(c4)OCO5)c2cc1OC)C(=O)OC3 [PHY-33, 7-O-(4,6-O-ethylidene-2,3-di-O-methyl-β-D-galactopyranosyl)-diphyllin]
effect of acetal variation on potency (in words) [4]: loss of potency

phyllanthusmins C [PHY-20]
IC50 (HT-29 cells): 1210 nM
Solubility in 10% Cremaphor EL/PBS [1]: 10 mg/mL
Solubility in DMSO [1]: 86 mg/mL
Solubility in PBS [1]: 0.16 mg/mL
Solubility in PEG300 [1]: 24 mg/mL

COc1cc2c(OC3OC(CO)C(OC)C(OC)C3OC)c3c(c(-c4ccc5c(c4)OCO5)c2cc1OC)C(=O)OC3 (centres unmarked) [PHY-25]
IC50 (HT-29 cells): 1.7 nM
IC50 ([2]; OVCAR3): 1500 nM
IC50 ([3]; OVCAR8): 10.4 nM

COc1cc2c(OC3OC(CO)C4OC(C)(C)OC4C3O)c3c(c(-c4ccc5c(c4)OCO5)c2cc1OC)C(=O)OC3 (centres unmarked) [PHY-34]
activity against HT-29 cells (in words) (HT-29 cells; in vitro): sub-nanomolar
IC50 ([2]; OVCAR3): 3.94 nM
potency in ovarian cancer cell lines (in words) ([2]; OVCAR3): highest potency
IC50 ([3]; OVCAR8): 4.06 nM
potency in ovarian cancer cell lines (in words) ([3]; OVCAR8): highest potency
Solubility in 30% HPβCD [1]: 1.7 mg/mL (≈ 2.92 mM)
Solubility in DMSO [1]: 114.4 mg/mL (≈ 196 mM)
Solubility in PBS [1]: 0.03 mg/mL (≈ 0.0515 mM)
Solubility in PEG300 [1]: 27.6 mg/mL (≈ 47.4 mM)
Stability of PHY-34 ([5]; 4° C., 1 week): 86
Stability of PHY-34 ([5]; 4° C., 1 day): 95
Stability of PHY-34, second value column ([5]; 4° C., 1 day): 77
Stability of PHY-34 ([5]; RT, 0 hr): 100
Stability of PHY-34, second value column ([5]; RT, 0 hr): 100
Stability of PHY-34 ([5]; RT, 6 hr): 87
Stability of PHY-34, second value column ([5]; RT, 6 hr): 82
Stability of PHY-34 ([5]; −20° C., 1 week): 87
Stability of PHY-34, second value column ([5]; −20° C., 1 week): 77
Stability of PHY-34 ([5]; −20° C., 1 day): 90
Stability of PHY-34, second value column ([5]; −20° C., 1 day): 82
Stability of PHY-34 ([5]; −80° C., 1 week): 86
Stability of PHY-34, second value column ([5]; −80° C., 1 week): 81
Stability of PHY-34 ([5]; −80° C., 1 day): 93
Stability of PHY-34, second value column ([5]; −80° C., 1 day): 80
stability of PHY-34 solution upon storage (in words) ([5]; storage for one week at 4° C. to −80° C.): stable (no significant degradation)
MTD (maximum tolerated dose) (mice; IP): 1.8 mpk
Toxicity (survival) (mice; IP, 0.6 mpk): all 3 alive
Toxicity (survival) (mice; IP, 1.8 mpk): all 5 alive
Toxicity (survival) (mice; IP, 3 mpk, within 0.5): all 3 died within 0.5
Toxicity (survival) (mice; IP, 6 mpk, within 0.5 hour): all 5 died within 0.5
MTD (maximum tolerated dose) (mice; IV): 0.6 mpk
Toxicity (survival) (mice; IV, 0.3 mpk): all 5 alive
Toxicity (survival) (mice; IV, 0.6 mpk): all 5 alive
Toxicity (survival) (mice; IV, 1 mpk, within 0.5 hour): 1 out of 5 died within
Toxicity (survival) (mice; IV, 3 mpk, within 5 minutes): all 5 died within 5
MTD (maximum tolerated dose) (mice; PO): >30 mpk
Toxicity (survival) (mice; PO, 30 mpk): all 5 alive
toxicity on oral dosing (in words) (mice; oral dosing, up to 30 mpk): no toxicity
AUC on oral dosing (in words) [6]: reasonable AUCs
efficacy in vivo in hollow fiber assay (in words) (Hollow fiber assay): demonstrated efficacy
activity in numerous other cell lines (in words) [7]: single digit nanomolar

acutissimalignan A [ACUTA, reference compound]
IC50 ([2]; OVCAR3): 3130 nM
IC50 ([3]; OVCAR8): 35.8 nM

COc1cc2c(OC3OC(CO)C4OC5(CCCCC5)OC4C3O)c3c(c(-c4ccc5c(c4)OCO5)c2cc1OC)C(=O)OC3 (centres unmarked) [PHY-42]
IC50 ([2]; OVCAR3): 377 nM
IC50 ([3]; OVCAR8): 1.99 nM
effect of acetal variation on potency (in words) [4]: well tolerated

COc1cc2c(OCC(O)CO)c3c(c(-c4ccc5c(c4)OCO5)c2cc1OC)C(=O)OC3 (centres unmarked) [PHY-19]
IC50 (HT-29 cells): 1560 nM

COc1cc2c(O[C@@H]3O[C@H](CO)[C@@H](O)[C@H](O)[C@H]3NC(C)=O)c3c(c(-c4ccc5c(c4)OCO5)c2cc1OC)C(=O)OC3 [PHY-29]
IC50 (HT-29 cells): 19000 nM
